Results published in patent publication US10376481B2, “Compounds and methods for inhibiting NHE-mediated antiport in the treatment of disorders associated with fluid retention or salt overload and gastrointestinal tract disorders” (ARDELYX, INC, priority 2012, dated 2019).

System: gastrointestinal motility
Experiment: Gastrointestinal transit (Evans Blue dye) in opioid induced constipation model
Type: in vivo, mice
Details: oral vehicle, loperamide 3 mg/kg subcutaneous, 30-minute period; vehicle/vehicle approximately 70%
Protocol: Gastrointestinal transit is measured in mice treated with the peripherally acting μ-opioid agonist loperamide to assess the ability of selected example compounds to restore gastrointestinal motility in a model of opioid induced constipation. Approximately eight-week old, female, CD1 […] are purchased from Envigo (Livermore, Calif.), are housed 4 per cage and acclimated for at least 48 hours before study initiation. Animals are fed standard laboratory rodent chow Harlan Teklad Global 2018 (Maddison, Wis.). […] 30 minutes later, animals are euthanized by carbon dioxide inhalation, and the length from the pylorus to cecum (whole length of the small intestine) and the length from the pylorus to the Evans Blue dye front are measured and recorded. For an individual animal, the length travelled by the Evans Blue dye front is divided by the length of the whole small intestine, measured from the pylorus to the cecum, and multiplied by 100, to provide the distance of the small intestine travelled by the dye as a percentage. […] The effect of example compounds on GIT motility in the presence of loperamide is calculated as the ability to restore vehicle/vehicle transit distance from the vehicle/loperamide transit, expressed as a percentage.

SMILES | distance of the small intestine travelled by the Evans Blue dye front
CN(C)C(=O)C(CCN1CCC(O)(c2ccc(Cl)cc2)CC1)(c1ccccc1)c1ccccc1 [loperamide] | ~25%

System: not given
Experiment: not given
Details: human absorption data, from Ertl et al.; cited from earlier work

SMILES | % FA
OC[C@H]1O[C@@H](O[C@@H]2[C@@H](CO)OC(O)(CO)[C@H]2O)[C@H](O)[C@@H](O)[C@H]1O (mixture of isomers) [lactulose] | 0.6%
C=CCc1ccccc1OCC(O)CNC(C)C (centres unmarked) [alprenolol] | 96%
O=C(O)P(=O)(O)O [foscarnet] | 17%
OC[C@@H](O)[C@@H](O)[C@H](O)[C@H](O)CO [mannitol] | 26%
Cc1ccccc1N1C(=O)c2cc(S(N)(=O)=O)c(Cl)cc2NC1C (centres unmarked) [metolazone] | 64%
O=C(O)c1cc(/N=N/c2ccc(O)c(C(=O)O)c2)ccc1O [olsalazine] | 2.3%
C=CCOc1ccccc1OCC(O)CNC(C)C (centres unmarked) [oxprenolol] | 97%
CC(C)NCC(O)COc1cccc2[nH]ccc12 (centres unmarked) [pindolol] | 92%
CC(=O)Nc1ccc(OCC(O)CNC(C)C)cc1 (centres unmarked) [practolol] | 95%
OC[C@H]1O[C@H](OC[C@H]2O[C@H](O[C@]3(CO)O[C@H](CO)[C@@H](O)[C@@H]3O)[C@H](O)[C@@H](O)[C@@H]2O)[C@H](O)[C@@H](O)[C@H]1O [raffinose] | 0.3%
O=C(O)c1cc(/N=N/c2ccc(S(=O)(=O)Nc3ccccn3)cc2)ccc1O [sulfasalazine] | 12%
CCN1CCCC1CNC(=O)c1cc(S(N)(=O)=O)ccc1OC (centres unmarked) [sulpiride] | 36%
NC[C@H]1CC[C@H](C(=O)O)CC1 [tranexamic acid] | 55%
